This is an account of results in paper PMC9389588, “1,6-epi-Cyclophellitol Cyclosulfamidate Is a Bona Fide Lysosomal α-Glucosidase Stabilizer for the Treatment of Pompe Disease” (Journal of the American Chemical Society, 2022).

A value given as a limit tells only on which side of the number the result lay.

The target of assay [1] is T1, glucosylceramide synthase (GCS) (Mus musculus, UniProt O88693).
T1 construct: endogenous in cells; host or cells: RAW 264.7
T1 sequence (O88693 1-394): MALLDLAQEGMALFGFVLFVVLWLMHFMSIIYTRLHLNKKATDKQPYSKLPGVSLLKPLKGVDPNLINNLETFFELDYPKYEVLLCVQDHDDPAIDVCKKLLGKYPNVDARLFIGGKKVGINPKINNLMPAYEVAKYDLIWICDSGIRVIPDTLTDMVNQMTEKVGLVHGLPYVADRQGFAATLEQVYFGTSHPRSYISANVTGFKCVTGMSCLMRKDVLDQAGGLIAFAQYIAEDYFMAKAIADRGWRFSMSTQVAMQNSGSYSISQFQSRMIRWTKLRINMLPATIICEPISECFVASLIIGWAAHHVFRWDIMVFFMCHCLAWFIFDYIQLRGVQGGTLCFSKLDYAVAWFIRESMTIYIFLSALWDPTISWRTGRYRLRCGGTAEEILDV
In words: in situ cell inhibition of GCS in RAW 264.7 cells, glucosylation of C6-NBD-ceramide. The class given is cell-based. To be noted: mean ± SD.

Assay [2] deals with T2, rhGAA (Myozyme) (Homo sapiens, UniProt P10253).
T2 construct: purchased Sanofi Genzyme
In words: thermostability assay of Myozyme, Tycho NT.6. The class given is binding.

Assay [3] has as its target T3, β-glucosidase GBA1 (Cerezyme) (Homo sapiens, UniProt P04062, R534H).
T3 construct: purchased
T3 sequence (P04062 40-536 R534H): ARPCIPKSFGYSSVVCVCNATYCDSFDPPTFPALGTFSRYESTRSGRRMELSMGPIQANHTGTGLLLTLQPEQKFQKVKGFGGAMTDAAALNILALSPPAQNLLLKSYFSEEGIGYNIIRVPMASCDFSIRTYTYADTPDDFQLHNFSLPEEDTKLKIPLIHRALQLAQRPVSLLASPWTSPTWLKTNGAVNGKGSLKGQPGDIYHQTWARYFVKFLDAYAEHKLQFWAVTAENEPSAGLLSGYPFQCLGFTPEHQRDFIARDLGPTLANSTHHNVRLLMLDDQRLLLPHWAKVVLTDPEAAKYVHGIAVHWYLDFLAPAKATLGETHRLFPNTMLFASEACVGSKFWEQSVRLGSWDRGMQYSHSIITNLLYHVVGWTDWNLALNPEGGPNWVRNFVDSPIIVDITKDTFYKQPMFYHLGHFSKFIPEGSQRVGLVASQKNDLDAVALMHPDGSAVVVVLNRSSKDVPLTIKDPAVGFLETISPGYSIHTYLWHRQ
The experiment in a line: in vitro apparent IC50, GBA1 (Cerezyme), 4-MU-β-D-glucopyranoside. Conditions: pH 5.2, mean ± SD, read-out: in vitro GBA IC50. The class given is biochemical.

The target of assay [4] is α-glucosidase GAA (Myozyme) (Homo sapiens, UniProt P10253). In words: in vitro apparent IC50, GAA (Myozyme), 4-MU-α-D-glucopyranoside. Format: biochemical. Set-up: purchased Sanofi Genzyme. To be noted: Myozyme 47 nM, pH 4.0, 30 min preincubation, mean ± SD.
Assay [5] concerns the target T2, rhGAA (Myozyme). The experiment in a line: time-dependent inhibition of GAA. To be noted: preincubation 15-240 min at apparent IC50 concentration. Format: biochemical. How it is done:
2.1 Biochemical and Biological Methods
2.1.1 In vitro apparent IC50 experiments
To determine in vitro apparent IC50 values, 40 μL of enzyme-mixture was pre-incubated with 40 μL of inhibitor for […]
and 2% DMSO (v/v). GANAB in 150 mM McIlvaine buffer pH 7.0, 0.1% BSA (w/v) and 2% DMSO (v/v). GBA1 in 150 mM McIlvaine buffer pH 5.2, 0.2% Taurocholate (w/v), 0.1% Triton X-100 (v/v), 0.1% BSA (w/v), 2% DMSO (v/v). GBA2 in 150 mM McIlvaine pH 5.8, 0.1% BSA (w/v).
After preincubation, 25 μL of E+I mixture was added to a 96 wells plate and 100 μL substrate solution in the appropriate buffer was subsequently added. GAA activity was measured using final concentrations of 47 nM enzyme (Myozyme) and 3.0 mM 4-MU-α-D-glucopyranoside, for 30 minutes at 37 ℃. GANAB activity was measured using wt fibroblasts and 2.4 mM 4-MU-α-D-glucopyranoside, for 2 h at 37 ℃. GBA1 activity was measured using final concentrations of 0.7 nM enzyme (Cerezyme) and 3.0 mM 4-methylumbeliferone(4-MU)-β-D-glucopyranoside, for 30 min at 37 ℃. GBA2 residual activity was measured using cellular homogenates of HEK293T over-expressing GBA2 pre-incubated for 30 min with a GBA1 inhibitor (1 µM 37 (ME656), see Figure S1 for chemical structure), and further incubation with 3.0 mM 4-methylumbeliferone(4MU)-β-D-glucopyranoside […]

On to `O=S1(=O)N[C@@H]2[C@H](O)[C@@H](O)[C@H](O)[C@@H](CO)[C@@H]2O1` [compound 4, 1,6-epi-cyclophellitol cyclosulfamidate], for which the concentration for half-maximal inhibition (IC50) is > 50 µM in assay [1], > 500 µM in assay [3] and 5.17 ± 0.195 µM in assay [4]. The “maximum shift in inflection temperature (ΔTimax)” value at rhGAA (Myozyme) [2] (Myozyme 1 μM, 0-20 μM compound, pH 6.5) turned out to be 11.2 °C. Moreover, on rhGAA (Myozyme) [2] (Myozyme 1 μM, 0-20 μM compound, pH 6.5, read-out: EC50 of thermal stabilization), the EC50 is 1.16 µM. Moreover, the type of inhibition result on rhGAA (Myozyme) [5] is “competitive manner”.
Turning to `O=S1(=O)N[C@H]2[C@H](CO)[C@@H](O)[C@H](O)[C@@H](O)[C@H]2O1` [compound 6], the half-inhibitory concentration (IC50) in assay [1] was > 50 µM; in assay [3], > 500 µM; in assay [4] it was 112 ± 2.54 µM. Further, at rhGAA (Myozyme) [2] (increasing temperature), the “effect on rhGAA thermostability, in words” value is “does not prevent enzyme unfolding”. Moreover, the type of inhibition result at rhGAA (Myozyme) [5] is on record as “irreversible inhibitor”.
